Laboratory results published in patent US9845319B2, “Amide substituted thiazoles as modulators of RORyt” (Janssen Pharmaceutica NV, priority 2014, dated 2017).

Tests used:
[1] = molecular target: T1, human RORγt ligand binding domain (RORγt LBD) (Homo sapiens, UniProt P51449); assay: RORγt ThermoFluor assay; details: estimated from thermal shift concentration response
T1 construct: His-tag (N); TurboTEV protease cleavage site (ENLYFQG) (N); made in house; host or cells: E. coli (pHIS1, a modified pET expression vector)
T1 sequence (P51449 with tags, fused parts or gaps): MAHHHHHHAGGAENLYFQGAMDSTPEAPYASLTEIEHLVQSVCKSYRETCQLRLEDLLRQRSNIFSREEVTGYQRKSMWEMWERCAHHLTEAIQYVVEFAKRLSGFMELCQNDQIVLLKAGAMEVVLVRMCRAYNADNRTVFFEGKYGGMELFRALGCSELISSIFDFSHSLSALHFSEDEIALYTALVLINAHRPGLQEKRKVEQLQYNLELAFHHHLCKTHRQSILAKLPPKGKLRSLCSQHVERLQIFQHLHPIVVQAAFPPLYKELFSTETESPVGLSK
Summary of the method: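 Thermal shift of RORγt LBD (0.065 mg/mL) with 60 μM 1,8-ANS in 100 mM Hepes pH 7.0, NaCl, GSH, 0.002% Tween-20, heated at 1° C/min. ANS fluorescence tracked versus temperature; ΔTm relative to DMSO wells. Compounds serially diluted 1:2 from 10 mM DMSO stock.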

full-length human RORγt = molecular target: T2, full-length human RORγt (Homo sapiens, UniProt P51449); assay: RORγt (full-length human) Reporter Assay, Conditions A; assay type: cell-based; details: for IC50: HEK293T cells, GAL4-DBD-RORγt, luciferase, read-out: RORγt (FL) Reporter Assay A, IC50; for inhibition at 6 µM: read-out: RORγt (FL) Reporter Assay A, % inhibition @ 6 μM, 6 μM compound; for inhibition at 2 µM: read-out: RORγt (FL) Reporter Assay A, % inhibition (* at 2 μM), 2 μM compound concentration (footnote *)
T2 construct: expressed in transfected cells; host or cells: HEK293T, transiently transfected with pCMV-BD-ROR
T2 sequence (P51449 1-497 isoform P51449-2): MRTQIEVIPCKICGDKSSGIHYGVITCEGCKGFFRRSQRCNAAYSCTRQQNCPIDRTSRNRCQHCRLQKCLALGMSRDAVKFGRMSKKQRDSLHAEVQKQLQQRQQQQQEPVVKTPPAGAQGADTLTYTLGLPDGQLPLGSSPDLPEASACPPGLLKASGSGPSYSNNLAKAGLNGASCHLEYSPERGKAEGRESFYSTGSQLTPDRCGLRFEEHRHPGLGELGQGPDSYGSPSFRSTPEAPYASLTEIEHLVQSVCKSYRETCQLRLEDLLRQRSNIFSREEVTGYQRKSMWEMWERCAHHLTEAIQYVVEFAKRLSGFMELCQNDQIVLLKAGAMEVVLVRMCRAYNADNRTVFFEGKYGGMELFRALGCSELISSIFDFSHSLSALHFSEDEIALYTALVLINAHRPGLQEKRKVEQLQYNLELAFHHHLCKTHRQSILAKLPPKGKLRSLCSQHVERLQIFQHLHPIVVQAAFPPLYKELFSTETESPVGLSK
Summary of the method: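 Dual-luciferase readout after overnight (16 to 20 hours) treatment: firefly values scaled between DMSO-only and saturating reference-compound controls, then corrected by Renilla. Percent inhibition calculated against DMSO control, with IC50 derived from concentration-response plots.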

Structure (SMILES): CCN(CC)C(=O)c1nc(-c2nnc(C)o2)sc1-c1ccc(S(=O)(=O)N[C@@H](C)C(F)(F)F)c(Cl)c1Cl [Example 7, (S)-5-(2,3-Dichloro-4-(N-(1,1,1-trifluoropropan-2-yl)sulfamoyl)phenyl)-N,N-diethyl-2-(5-methyl-1,3,4-oxadiazol-2-yl)thiazole-4-carboxamide]
- Kd [1]: 290 nM
- IC50 (full-length human RORγt): 120 nM
- inhibition at 6 µM (full-length human RORγt): 102%

Structure (SMILES): C[C@H](NS(=O)(=O)c1ccc(-c2sc(-c3nnc(C(C)(C)O)o3)nc2C(=O)N2CCC(F)(F)CC2)c(Cl)c1F)C(F)(F)F [Example 8/1, (S)-3-Chloro-4-(4-(4,4-difluoropiperidine-1-carbonyl)-2-(5-(2-hydroxypropan-2-yl)-1,3,4-oxadiazol-2-yl)thiazol-5-yl)-2-fluoro-N-(1,1,1-trifluoropropan-2-yl)benzenesulfonamide]
- Kd [1]: 5.6 nM
- IC50 (full-length human RORγt): 61 nM
- inhibition at 6 µM (full-length human RORγt): 108%

Structure (SMILES): CC(C)(O)c1nnc(-c2nc(C(=O)N3CCC(F)(F)CC3)c(-c3ccc(CC(O)(C(F)(F)F)C(F)(F)F)c(Cl)c3Cl)s2)o1 [Example 8/2, (5-(2,3-Dichloro-4-(3,3,3-trifluoro-2-hydroxy-2-(trifluoromethyl)propyl)phenyl)-2-(5-(2-hydroxypropan-2-yl)-1,3,4-oxadiazol-2-yl)thiazol-4-yl)(4,4-difluoropiperidin-1-yl)methanone]
- Kd [1]: 1.7 nM
- IC50 (full-length human RORγt): 51 nM
- inhibition at 2 µM (full-length human RORγt): 104%

Structure (SMILES): CC(C)(O)c1nnc(-c2nc(C(=O)N3CCC(F)(F)CC3)c(-c3ccc(CC(O)(C(F)(F)F)C(F)(F)F)c(Cl)c3)s2)o1 [Example 8/3, (5-(3-Chloro-4-(3,3,3-trifluoro-2-hydroxy-2-(trifluoromethyl)propyl)phenyl)-2-(5-(2-hydroxypropan-2-yl)-1,3,4-oxadiazol-2-yl)thiazol-4-yl)(4,4-difluoropiperidin-1-yl)methanone]
- Kd [1]: 6.3 nM
- IC50 (full-length human RORγt): 83 nM
- inhibition at 2 µM (full-length human RORγt): 104%

Structure (SMILES): CCN(CC)C(=O)c1nc(-c2nnc(C(C)(C)O)[nH]2)sc1-c1ccc(C(O)(C(F)(F)F)C(F)(F)F)c(Cl)c1Cl [Example 9, 5-(2,3-Dichloro-4-(1,1,1,3,3,3-hexafluoro-2-hydroxypropan-2-yl)phenyl)-N,N-diethyl-2-(5-(2-hydroxypropan-2-yl)-4H-1,2,4-triazol-3-yl)thiazole-4-carboxamide]
- Kd [1]: 32 nM
- IC50 (full-length human RORγt): 120 nM
- inhibition at 2 µM (full-length human RORγt): 99%

Structure (SMILES): CCN(CC)C(=O)c1nc(-c2nncn2CC(C)(C)O)sc1-c1ccc(C(O)(C(F)(F)F)C(F)(F)F)c(Cl)c1Cl [Example 9/1, 5-(2,3-Dichloro-4-(1,1,1,3,3,3-hexafluoro-2-hydroxypropan-2-yl)phenyl)-N,N-diethyl-2-(4-(2-hydroxy-2-methylpropyl)-4H-1,2,4-triazol-3-yl)thiazole-4-carboxamide]
- Kd [1]: 27 nM
- IC50 (full-length human RORγt): 67 nM
- inhibition at 2 µM (full-length human RORγt): 99%

Structure (SMILES): C[C@H](NS(=O)(=O)c1ccc(-c2sc(-c3nnc(C(C)(C)O)[nH]3)nc2C(=O)N2CC(F)(F)C[C@@H]2C)c(Cl)c1Cl)C(F)(F)F [Example 9/2, 2,3-Dichloro-4-(4-((S)-4,4-difluoro-2-methylpyrrolidine-1-carbonyl)-2-(5-(2-hydroxypropan-2-yl)-4H-1,2,4-triazol-3-yl)thiazol-5-yl)-N—((S)-1,1,1-trifluoropropan-2-yl)benzenesulfonamide]
- Kd [1]: 0.71 nM
- IC50 (full-length human RORγt): 28 nM
- inhibition at 2 µM (full-length human RORγt): 104%

Structure (SMILES): C[C@H](NS(=O)(=O)c1ccc(-c2sc(-c3nnc(C(C)(C)O)[nH]3)nc2C(=O)N2CCC(F)(F)CC2)c(Cl)c1Cl)C(F)(F)F [Example 9/3, (S)-2,3-Dichloro-4-(4-(4,4-difluoropiperidine-1-carbonyl)-2-(5-(2-hydroxypropan-2-yl)-4H-1,2,4-triazol-3-yl)thiazol-5-yl)-N-(1,1,1-trifluoropropan-2-yl)benzenesulfonamide]
- Kd [1]: 1.2 nM
- IC50 (full-length human RORγt): 61 nM
- inhibition at 2 µM (full-length human RORγt): 104%

Structure (SMILES): CC[C@H](NS(=O)(=O)c1ccc(-c2sc(-c3noc(CC(C)(C)C(=O)O)n3)nc2C(=O)N2CCC(F)(F)CC2)c(C(F)F)c1Cl)C(F)(F)F [Example 10/1, (S)-3-(3-(5-(3-Chloro-2-(difluoromethyl)-4-(N-(1,1,1-trifluorobutan-2-yl)sulfamoyl)phenyl)-4-(4,4-difluoropiperidine-1-carbonyl)thiazol-2-yl)-1,2,4-oxadiazol-5-yl)-2,2-dimethylpropanoic acid]
- Kd [1]: 0.0014 nM
- IC50 (full-length human RORγt): 66 nM
- inhibition at 6 µM (full-length human RORγt): 104%

Structure (SMILES): CC[C@H](NS(=O)(=O)c1ccc(-c2sc(-c3noc(CC(C)(C)C(=O)O)n3)nc2C(=O)N2CC(F)(F)C[C@@H]2C)c(C(F)F)c1Cl)C(F)(F)F [Example 10/3, 3-(3-(5-(3-Chloro-2-(difluoromethyl)-4-(N—((S)-1,1,1-trifluorobutan-2-yl)sulfamoyl)phenyl)-4-((S)-4,4-difluoro-2-methylpyrrolidine-1-carbonyl)thiazol-2-yl)-1,2,4-oxadiazol-5-yl)-2,2-dimethylpropanoic acid]
- Kd [1]: 0.0036 nM
- IC50 (full-length human RORγt): 50 nM
- inhibition at 6 µM (full-length human RORγt): 97%

Structure (SMILES): C[C@H](NS(=O)(=O)c1ccc(-c2sc(-c3noc(C(C)(C)O)n3)nc2C(=O)N2CCC(F)CC2)c(C(F)F)c1F)C(F)(F)F [Example 11/1, (S)-3-(Difluoromethyl)-2-fluoro-4-(4-(4-fluoropiperidine-1-carbonyl)-2-(5-(2-hydroxypropan-2-yl)-1,2,4-oxadiazol-3-yl)thiazol-5-yl)-N-(1,1,1-trifluoropropan-2-yl)benzenesulfonamide]
- Kd [1]: 31 nM
- IC50 (full-length human RORγt): 120 nM
- inhibition at 6 µM (full-length human RORγt): 103%

Structure (SMILES): C[C@H](NS(=O)(=O)c1ccc(-c2sc(-c3noc(C(C)(C)O)n3)nc2C(=O)N2CCC(F)(F)CC2)c(C(F)F)c1F)C(F)(F)F [Example 11/2, (S)-3-(Difluoromethyl)-4-(4-(4,4-difluoropiperidine-1-carbonyl)-2-(5-(2-hydroxypropan-2-yl)-1,2,4-oxadiazol-3-yl)thiazol-5-yl)-2-fluoro-N-(1,1,1-trifluoropropan-2-yl)benzenesulfonamide]
- Kd [1]: 12 nM
- IC50 (full-length human RORγt): 46 nM
- inhibition at 6 µM (full-length human RORγt): 108%

Structure (SMILES): CC[C@H](NS(=O)(=O)c1ccc(-c2sc(-c3noc(CC(C)(C)O)n3)nc2C(=O)N2CCC(F)CC2)c(C(F)F)c1F)C(F)(F)F [Example 12, (S)-3-(Difluoromethyl)-2-fluoro-4-(4-(4-fluoropiperidine-1-carbonyl)-2-(5-(2-hydroxy-2-methylpropyl)-1,2,4-oxadiazol-3-yl)thiazol-5-yl)-N-(1,1,1-trifluorobutan-2-yl)benzenesulfonamide]
- Kd [1]: 9.4 nM
- IC50 (full-length human RORγt): 68 nM
- inhibition at 6 µM (full-length human RORγt): 103%

Structure (SMILES): CC[C@H](NS(=O)(=O)c1ccc(-c2sc(-c3noc(CC(C)(C)O)n3)nc2C(=O)N2CCC(F)(F)C2)c(C(F)F)c1F)C(F)(F)F [Example 12/1, (S)-3-(Difluoromethyl)-4-(4-(3,3-difluoropyrrolidine-1-carbonyl)-2-(5-(2-hydroxy-2-methylpropyl)-1,2,4-oxadiazol-3-yl)thiazol-5-yl)-2-fluoro-N-(1,1,1-trifluorobutan-2-yl)benzenesulfonamide]
- Kd [1]: 30 nM
- IC50 (full-length human RORγt): 120 nM
- inhibition at 6 µM (full-length human RORγt): 102%
